The assay addresses T1, human alpha 7-wt nAChR (Homo sapiens, UniProt P36544).
T1 construct: expressed in transfected cells
Put plainly: Ca2+ flux imaging (FDSS) (protocol B). The class given is cell-based. The settings on record: for Emax: read-out: % Efficacy; for EC50: read-out: pEC50 (converted). The method, then: Example D.1 : Ca^2+ flux imaging (FDSS) (protocol B)
• a) Assay buffer Hanks buffered saline solution (HBSS, Invitrogen, Belgium), supplemented with 10 mM HEPES (Invitrogen, Belgium), CaCl2 to a final concentration of 5 mM, 0.1 % Bovine serum albumin (Sigma-Aldrich NV, Belgium). • b) Calcium-sensitive dye - Fluo-4AM Fluo-4AM (Molecular Probes, USA) was dissolved in DMSO containing 10% Pluronic acid (Molecular Probes, USA) to give a stock solution which was diluted in assay buffer supplemented with 5 mM probenicid (Sigma, Aldrich NV, Belgium) to give a final concentration of 2 µM • c) 384-well plates Black-sided, transparent bottomed 384 well plates coated with poly-D-lysine, PDL pre-coated (Coming, Incorporated, USA) • d) Calcium flux measurement A Functional drug screening system (FDSS, Hamamatsu) was used to measure intracellular free-calcium flux signals.
Monolayers of human alpha 7-wt nAChR-expressing cells were grown in black-sided, transparent bottomed 384 well plates coated with PDL for 24 hours prior to loading with a fluorescent calcium indicator, fluo-4AM for up to 120 minutes.
PAM activity was detected in real time by applying the compounds to be tested to the loaded cells along with an alpha 7 nicotinic receptor agonist during constant monitoring of cellular fluorescence in a FDSS. Compounds giving peak fluorescent responses greater than the response due to agonist alone, were consideted to be alpha 7 nAChR PAMs. The alpha 7 nicotinic receptor agonist was choline, applied at a sub-maximal concentration of 100 µM. In a further setting of the present invention the compounds were applied prior to the alpha 7 nicotinic receptor agonist, in a particular 10 minutes prior to the agonist.
A control response to choline was calculated on each plate from the difference in peak in fluorescence in wells receiving either choline or assay buffer alone. Compounds of the present invention were tested at a concentration range from 0.01 µM to 30 µM. Compounds were considered to have an interesting activity when they potentiated the choline signal at least with 200 % when tested at a concentration of 30 µM (the efficacy of 100 µM choline was defined as 100% in the absence of a PAM). An EC50 (or pEC50) was determined as a concentration relating to half the maximal effect, when a clear sigmoidal curve with top plateau was obtained.
In general terms: Calcium assays in cells follow changes in intracellular calcium, usually with a dye or a luminescent sensor.

Data on 51 compounds can be found in patent EP2678315B1, “(Pyridin-4-yl)benzylamides as allosteric modulators of alpha 7 nAChR” (Janssen Pharmaceutica, N.V., priority 2011, dated 2012).

Read-outs that look alike come from different tables or passages of the source.

T1 sequence (P36544 23-502): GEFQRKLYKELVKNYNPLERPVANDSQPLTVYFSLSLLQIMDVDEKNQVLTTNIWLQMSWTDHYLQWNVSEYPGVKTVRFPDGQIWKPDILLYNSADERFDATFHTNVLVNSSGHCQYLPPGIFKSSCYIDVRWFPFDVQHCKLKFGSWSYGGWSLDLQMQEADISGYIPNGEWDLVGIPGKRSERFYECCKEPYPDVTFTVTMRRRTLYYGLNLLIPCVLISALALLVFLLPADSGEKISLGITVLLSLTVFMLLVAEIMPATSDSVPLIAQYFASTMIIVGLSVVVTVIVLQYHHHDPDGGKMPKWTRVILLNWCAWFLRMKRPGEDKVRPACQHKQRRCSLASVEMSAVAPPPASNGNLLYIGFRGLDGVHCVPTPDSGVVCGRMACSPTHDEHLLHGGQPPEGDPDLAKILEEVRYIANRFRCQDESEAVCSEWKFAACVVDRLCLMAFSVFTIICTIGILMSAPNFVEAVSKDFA

Take `Cc1cc(-c2ccc(N3CC4CCC(C3)O4)cc2CNC(=O)CC2CC2)cc(C)n1` [Compound 130]: the Emax (Ca2+ assay as described in D.1) worked out at 95.5%.
As for `Cc1nocc1C(=O)NCc1cc(N2C[C@@H](C)O[C@@H](C)C2)ccc1-c1ccncc1` [Compound 17], the Emax came out at 681%. Also, the EC50 (Ca2+ assay as described in D.1) was 1660 nM.
The matching figures for `Cc1cc(-c2c(F)cc(N3CCCC(C(F)(F)F)C3)cc2CNC(=O)C2CC2)cc(C)n1` (stereo not drawn) [Compound 97]: 330% and 19.5 nM.
As to `Cc1cc(-c2c(F)cc(N3C[C@@H](C)O[C@@H](C)C3)cc2CNC(=O)c2cc(C)on2)ccn1` [Compound 90], the EC50 (Ca2+ assay as described in D.1) was 525 nM.
Take `Cc1cc(-c2c(F)cc(N3C[C@@H](C)O[C@@H](C)C3)cc2CNC(=O)CC(F)(F)F)cc(C)n1` [Compound 77]: where the note is “Ca2+ assay as described in D.1”, the Emax is 136%.
For the compound `Cc1cc(-c2ccc(N3C[C@@H](C)O[C@@H](C)C3)c(F)c2CNC(=O)CC(C)C)cc(C)n1` [Compound 43], the EC50 (Ca2+ assay as described in D.1) is 120 nM.
For the compound `Cc1cc(-c2ccc(N3CCOCC3)cc2CNC(=O)CC(F)(F)F)cc(C)n1` [Compound 28], the Emax (Ca2+ assay as described in D.1) was 111%.
Consider `Cc1cc(-c2ccc(N3C[C@@H](C)O[C@@H](C)C3)cc2CNC(=O)C(C)C2CC2)cc(C)n1` (relative stereo) [Compound 8], for which the Emax turned out to be 353%. Besides, the EC50 (Ca2+ assay as described in D.1) was 24 nM.
`Cc1cc(-c2ccc(N3C[C@@H](C)O[C@@H](C)C3)c(F)c2CNC(=O)C2CC2)cc(C)n1` [Compound 42]: for the setting “Ca2+ assay as described in D.1”, the EC50 was 1170 nM.
Consider `Cc1cc(-c2ccc(N3C[C@@H](C)O[C@@H](C)C3)cc2CNC(=O)c2cc(C)on2)ccn1` [Compound 10], for which the EC50 (Ca2+ assay as described in D.1) was 1230 nM.
Take `Cc1cc(-c2c(F)cc(N3C[C@@H](C)O[C@@H](C)C3)cc2CNC(=O)c2conc2C)cc(C)n1` [Compound 76]: the Emax is 572%. For the setting “Ca2+ assay as described in D.1”, the EC50 is roughly 38 nM.
For the compound `Cc1cc(-c2ccc(N3C[C@@H](C)O[C@@H](C)C3)c(F)c2CNC(=O)CCCC(F)(F)F)cc(C)n1` [Compound 44], the EC50 (Ca2+ assay as described in D.1) is 316 nM.
Take `Cc1cc(-c2ccc(N3CCO[C@@H](C(F)(F)F)C3)c(F)c2CNC(=O)c2conc2C)cc(C)n1` [Compound 58]: the EC50 (Ca2+ assay as described in D.1) was 269 nM.
For the compound `Cc1cc(-c2ccc(N3C[C@H](C(F)(F)F)C[C@H](C(F)(F)F)C3)cc2CNC(=O)c2conc2C)cc(C)n1` [Compound 19], the Emax was determined as 266%. For the same compound, the EC50 (Ca2+ assay as described in D.1) is 50.1 nM.
Regarding `Cc1cc(-c2ccc(N3C[C@@H](C)O[C@@H](C)C3)c(F)c2CNC(=O)C(C)C)cc(C)n1` [Compound 41], for the setting “Ca2+ assay as described in D.1”, the EC50 is 575 nM.
Same read-out and setting: to `Cc1cc(-c2ccc(N3C[C@@H](C)O[C@@H](C)C3)cc2CNC(=O)c2ccc(F)cc2C)cc(C)n1` [Compound 5] belongs 9.33 nM.
On to `Cc1cc(-c2ccc(N3CCCC(C(F)(F)F)C3)cc2CNC(=O)C(C)C)cc(C)n1` (stereo not drawn) [Compound 36], for which, where the note is “Ca2+ assay as described in D.1”, the Emax amounted to 131%.
As for `Cc1cc(-c2ccc(C3C[C@@H](C)O[C@@H](C)C3)c(F)c2CNC(=O)C2CC2)cc(C)n1` (relative stereo) [Compound 54], the EC50 (Ca2+ assay as described in D.1) is 1580 nM.
On the same count and under the same terms, to `Cc1cc(-c2ccc(N3C[C@@H](C)O[C@@H](C)C3)c(F)c2CNC(=O)c2cccc(Cl)c2F)cc(C)n1` [Compound 52] belongs 479 nM.
Consider `Cc1cc(-c2ccc(N3C[C@@H](C)O[C@@H](C)C3)cc2CNC(=O)CC(F)(F)F)cc(C)n1` [Compound 7], for which the Emax (Ca2+ assay as described in D.1) amounted to 287%.
Turning to `Cc1cc(-c2ccc(N3CCOCC3)cc2CNC(=O)c2cc(C)on2)cc(C)n1` [Compound 25], the Emax is 654%. The EC50 (Ca2+ assay as described in D.1) was 6170 nM.
For `Cc1cc(-c2ccc(N3C[C@@H](C)O[C@@H](C)C3)c(F)c2CNC(=O)CC(C)(C)C)cc(C)n1` [Compound 48], the EC50 (Ca2+ assay as described in D.1) is 24 nM.
Still for that read-out and setting: to `Cc1cc(-c2c(F)cc(N3C[C@@H](C)O[C@@H](C)C3)cc2CNC(=O)CCC(F)(F)F)cc(C)n1` [Compound 81] belongs 5.37 nM.
In the case of `Cc1cc(-c2c(F)cc(N3CCCC(C(F)(F)F)C3)cc2CNC(=O)C(C)C)cc(C)n1` (stereo not drawn) [Compound 96], the Emax (Ca2+ assay as described in D.1) came out at 148%.
`Cc1cc(-c2ccc(N3CCO[C@H](C(F)(F)F)C3)c(F)c2CNC(=O)C2CC2)cc(C)n1` [Compound 69]: for the setting “Ca2+ assay as described in D.1”, the EC50 is 776 nM.
Same read-out and setting: to `Cc1cc(-c2ccc(C3C[C@@H](C)O[C@@H](C)C3)c(F)c2CNC(=O)C(C)C)cc(C)n1` (relative stereo) [Compound 61] belongs 871 nM.
With `Cc1cc(-c2c(F)cc(N3C[C@@H](C)O[C@@H](C)C3)cc2CNC(=O)CC(C)(C)C)cc(C)n1` [Compound 84], the Emax stood at 686%. Further, the EC50 (Ca2+ assay as described in D.1) was 9.33 nM.
On to `O=C(CC1CC1)NCc1cc(N2CCOCC2)ccc1-c1ccncc1` [Compound 139], for which the Emax is 367%. Moreover, the EC50 (Ca2+ assay as described in D.1) is 3160 nM.
As for `Cc1cc(-c2c(F)cc(N3C[C@@H](C)O[C@@H](C)C3)cc2CNC(=O)CC2CCC2)cc(C)n1` [Compound 80], for the setting “Ca2+ assay as described in D.1”, the EC50 is 6.17 nM.
On the same count and under the same terms, to `Cc1cc(-c2ccc(N3C[C@@H](C)O[C@@H](C)C3)c(CNC(=O)c3ccc(F)cc3C)c2)cc(C)n1` [Compound 135] belongs 14.1 nM.
As to `Cc1cc(-c2ccc(N3CCOCC3)cc2CNC(=O)c2ccc(F)cc2C)cc(C)n1` [Compound 27], the Emax stood at 419%. Further, the EC50 (Ca2+ assay as described in D.1) is 57.5 nM.
The matching figures for `Cc1cc(-c2ccc(N3C[C@H](C(F)(F)F)C[C@H](C(F)(F)F)C3)cc2CNC(=O)CC2CC2)cc(C)n1` [Compound 22]: 458% and 16.2 nM.
The matching figures for `Cc1cc(-c2c(F)cc(N3CCCC(C(F)(F)F)C3)cc2CNC(=O)C(C)C2CC2)cc(C)n1` (stereo not drawn) [Compound 93]: 736% and 36.3 nM.
The matching figures for `Cc1cc(-c2ccc(N3CCO[C@@H](C(F)(F)F)C3)c(F)c2CNC(=O)C2CC2)cc(C)n1` [Compound 73]: 878% and 741 nM.
On to `Cc1cc(-c2c(F)cc(N3C[C@@H](C)O[C@@H](C)C3)cc2CNC(=O)CC(C)C)cc(C)n1` [Compound 83], for which the Emax worked out at 906%. In addition, the EC50 (Ca2+ assay as described in D.1) was 7.08 nM.
The matching figures for `Cc1cc(-c2ccc(N3CCOCC3)cc2CNC(=O)C(C)C)cc(C)n1` [Compound 29]: 256% and 813 nM.
In the case of `Cc1cc(-c2ccc(N3CCO[C@H](C(F)(F)F)C3)c(F)c2CNC(=O)c2cc(C)on2)cc(C)n1` [Compound 67], the EC50 (Ca2+ assay as described in D.1) was 347 nM.
As for `Cc1cc(-c2ccc(C3C[C@@H](C)O[C@@H](C)C3)c(F)c2CNC(=O)c2cc(C)on2)cc(C)n1` (relative stereo) [Compound 62], the EC50 (Ca2+ assay as described in D.1) was 708 nM.
Same read-out and setting: to `Cc1cc(-c2ccc(N3C[C@@H](C)O[C@@H](C)C3)cc2CNC(=O)C2CC2)ccn1` [Compound 14] belongs 589 nM.
For the compound `Cc1cc(-c2ccc(N3C[C@H](C(F)(F)F)C[C@H](C(F)(F)F)C3)cc2CNC(=O)c2cc(C)on2)cc(C)n1` [Compound 21], the Emax is 541%. The EC50 (Ca2+ assay as described in D.1) was 126 nM.
Regarding `Cc1cc(-c2c(F)cc(N3C[C@@H](C)O[C@@H](C)C3)cc2CNC(=O)CC(C)C)ccn1` [Compound 92], where the note is “Ca2+ assay as described in D.1”, the EC50 is 12.6 nM.
Regarding `Cc1cc(-c2c(F)cc(N3C[C@@H](C)O[C@@H](C)C3)c(F)c2CNC(=O)C2CC2)cc(C)n1` [Compound 122], the EC50 (Ca2+ assay as described in D.1) is 589 nM.
The same measure, in the same setting: to `Cc1cc(-c2ccc(N3CCO[C@@H](C(F)(F)F)C3)c(F)c2CNC(=O)CC(C)C)cc(C)n1` [Compound 72] belongs 14.8 nM; to `Cc1cc(-c2ccc(N3C[C@@H](C)O[C@@H](C)C3)c(F)c2CNC(=O)c2cnc(Cl)cc2Cl)cc(C)n1` [Compound 51], 148 nM; to `Cc1cc(-c2ccc(N3C[C@@H](C)O[C@@H](C)C3)c(F)c2CNC(=O)c2cc(C)on2)cc(C)n1` [Compound 38], 977 nM.
As to `Cc1cc(-c2c(F)cc(N3CCCC(C(F)(F)F)C3)cc2CNC(=O)c2conc2C)cc(C)n1` (stereo not drawn) [Compound 98], the Emax (Ca2+ assay as described in D.1) was 119%.
For `Cc1cc(-c2c(F)cc(N3C[C@@H](C)O[C@@H](C)C3)cc2CNC(=O)C2CCC2)cc(C)n1` [Compound 85], the Emax is 954%. In addition, where the note is “Ca2+ assay as described in D.1”, the EC50 is 6.17 nM.
On to `Cc1cc(-c2ccc(N3CCCC(C(F)(F)F)C3)cc2CNC(=O)c2ccc(F)cc2C)cc(C)n1` (stereo not drawn) [Compound 33], for which the Emax came out at 278%. Moreover, the EC50 (Ca2+ assay as described in D.1) is 245 nM.
In the case of `Cc1cc(-c2ccc(N3C[C@@H](C)O[C@@H](C)C3)c(F)c2CNC(=O)c2conc2C)cc(C)n1` [Compound 39], the EC50 (Ca2+ assay as described in D.1) was 832 nM.
`Cc1cc(-c2ccc(N3CCOCC3)cc2CNC(=O)c2conc2C)ccn1` [Compound 143]: the Emax was 130%. For the same compound, for the setting “Ca2+ assay as described in D.1”, the EC50 was 8710 nM.
For `Cc1cc(-c2ccc(C3C[C@@H](C)O[C@@H](C)C3)c(F)c2CNC(=O)c2conc2C)cc(C)n1` (relative stereo) [Compound 63], the EC50 (Ca2+ assay as described in D.1) is 1070 nM.
